Data: ChEMBL document CHEMBL1201862, “PubChem BioAssay data set” (2004)
Several values for one entry are separate records, joined by “and”; a condition that tells them apart may be missing. Equal entries are not always repeated.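 Five concentrations, 48 hours, 96-well plates. The concentration for 50% growth inhibition is given as GI50.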 Activity calls are given as the source filed them. No stated cut-off is given here; in the data, active = GI50 up to about 1.1 µM and inactive = higher.

Key:
Assay in all cases: inhibition of tumour cell growth, NCI panel, 48 h
CCRF-CEM = system: CCRF-CEM
UACC-257 = system: UACC-257
MCF7 = system: MCF7
M19-MEL = system: M19-MEL
UACC-62 = system: UACC-62
SNB-78 = system: SNB-78
COLO 205 = system: COLO 205
T47D = system: T47D
OVCAR-3 = system: OVCAR-3
OVCAR-5 = system: OVCAR-5
HCC 2998 = system: HCC 2998
M14 = system: M14
KM-20L2 = system: KM-20L2
DU-145 = system: DU-145
EKVX = system: EKVX
SK-MEL-5 = system: SK-MEL-5
DLD-1 = system: DLD-1
HOP-62 = system: HOP-62
SN12C = system: SN12C
BT-549 = system: BT-549
SF-295 = system: SF-295
SR = system: SR
MDA-N = system: MDA-N
786-0 = system: 786-0
HOP-92 = system: HOP-92
OVCAR-4 = system: OVCAR-4
NCI-H522 = system: NCI-H522
SF-268 = system: SF-268
NCI/ADR-RES = system: NCI/ADR-RES
SNB-75 = system: SNB-75
SK-OV-3 = system: SK-OV-3
LXFL 529 = system: LXFL 529
PC-3 = system: PC-3
HT-29 = system: HT-29
RXF 631 = system: RXF 631
Malme-3M = system: Malme-3M
MDA-MB-231 = system: MDA-MB-231
HOP-18 = system: HOP-18
HL-60 = system: HL-60
K562 = system: K562
SNB-19 = system: SNB-19
A498 = system: A498
ACHN = system: ACHN
SK-MEL-28 = system: SK-MEL-28
A549 = system: A549
HCT-15 = system: HCT-15
RPMI-8226 = system: RPMI-8226
NCI-H460 = system: NCI-H460
MOLT-4 = system: MOLT-4
UO-31 = system: UO-31
RXF 393 = system: RXF 393
SW-620 = system: SW-620
DMS-273 = system: DMS-273
OVCAR-8 = system: OVCAR-8
SK-MEL-2 = system: SK-MEL-2
CAKI-1 = system: CAKI-1
DMS-114 = system: DMS-114
KM12 = system: KM12
SF-539 = system: SF-539
XF498 = system: XF498
IGROV-1 = system: IGROV-1
U-251 = system: U-251
NCI-H23 = system: NCI-H23
TK-10 = system: TK-10
LOX IMVI = system: LOX IMVI
HCT-116 = system: HCT-116

For `COc1cccc2c1C(=O)c1c(O)c3c(c(O)c1C2=O)C[C@@](O)(C(=O)CO)C[C@@H]3OC1CC(N)CC(C)O1` (some centres not stated), the GI50 (CCRF-CEM) was 26.7 nM (active), the GI50 (UACC-257) was 51 nM (active) and the GI50 (MCF7) was 0.024 µM (active). For the same compound, the GI50 (M19-MEL) was 31.4 nM (active), the GI50 (UACC-62) was 25.4 nM (active) and the GI50 (SNB-78) was 128 nM (active). For the same compound, the GI50 (COLO 205) was 42 nM (active), the GI50 (T47D) was 0.0233 µM (active) and the GI50 (OVCAR-3) was 54.7 nM (active). For the same compound, the GI50 (OVCAR-5) was 74 nM (active), the GI50 (HCC 2998) was 0.0706 µM (active) and the GI50 (M14) was 80.3 nM (active). The GI50 (KM-20L2) was 69.5 nM (active), the GI50 (DU-145) was 0.0267 µM (active) and the GI50 (EKVX) was 84.7 nM (active). The GI50 (SK-MEL-5) was 0.0371 µM (active), the GI50 (DLD-1) was 92 nM (active) and the GI50 (HOP-62) was 0.0221 µM (active). The GI50 (SN12C) was 29.9 nM (active), the GI50 (BT-549) was 0.0283 µM (active) and the GI50 (SF-295) was 23.9 nM (active). For the same compound, the GI50 (SR) was 0.00266 µM (active), the GI50 (MDA-N) was 0.0955 µM (active) and the GI50 (786-0) was 0.0247 µM (active). For the same compound, the GI50 (HOP-92) was 41.6 nM (active), the GI50 (OVCAR-4) was 46 nM (active) and the GI50 (NCI-H522) was 0.038 µM (active). For the same compound, the GI50 (SF-268) was 45.1 nM (active), the GI50 (NCI/ADR-RES) was 3.67 µM (inactive) and the GI50 (SNB-75) was 40.2 nM (active). For the same compound, the GI50 (SK-OV-3) was 0.0521 µM (active), the GI50 (LXFL 529) was 46.2 nM (active) and the GI50 (PC-3) was 0.027 µM (active). For the same compound, the GI50 (HT-29) was 35 nM (active), the GI50 (RXF 631) was 30.1 nM (active) and the GI50 (Malme-3M) was 28.4 nM (active). For the same compound, the GI50 (MDA-MB-231) was 0.0612 µM (active) and the GI50 (HOP-18) was 0.0348 µM (active).
`O=S(O)CCCCSSCC(O)C(O)CSSCCCCS(=O)O` (configuration not stated) was tested, and the GI50 (HL-60) was 10.2 µM (inactive) and 10.6 µM (inactive), the GI50 (CCRF-CEM) was 3.37 µM (inactive) and 3.21 µM (inactive) and the GI50 (UACC-257) was 8.39 µM (inactive) and 4.7 µM (inactive). The GI50 (M19-MEL) was 5.48 µM (inactive) and 3.37 µM (inactive), the GI50 (K562) was 18.7 µM (inactive) and 12.6 µM (inactive) and the GI50 (UACC-62) was 12.9 µM (inactive) and 8.73 µM (inactive). The GI50 (SNB-78) was 18.2 µM (inactive) and 20.9 µM (inactive), the GI50 (COLO 205) was 18.5 µM (inactive) and 14.6 µM (inactive) and the GI50 (SNB-19) was 50 µM (inactive) and 55.6 µM (inactive). For the same compound, the GI50 (A498) was 64.3 µM (inactive) and 61.9 µM (inactive), the GI50 (OVCAR-3) was 11.4 µM (inactive) and 12.4 µM (inactive) and the GI50 (ACHN) was 26.1 µM (inactive) and 22.1 µM (inactive). The GI50 (OVCAR-5) was > 100 µM (inactive) and 74.8 µM (inactive), the GI50 (M14) was 12.9 µM (inactive) and 9.08 µM (inactive) and the GI50 (SK-MEL-28) was 21.6 µM (inactive) and 14.9 µM (inactive). For the same compound, the GI50 (KM-20L2) was > 100 µM (inactive) and 50.6 µM (inactive), the GI50 (A549) was 34.5 µM (inactive) and 27.1 µM (inactive) and the GI50 (EKVX) was 26.9 µM (inactive) and 33.4 µM (inactive). For the same compound, the GI50 (DLD-1) was 41.1 µM (inactive) and 68.4 µM (inactive), the GI50 (HCT-15) was 30.5 µM and 29.6 µM and the GI50 (RPMI-8226) was 13.5 µM (inactive) and 11.8 µM (inactive). For the same compound, the GI50 (NCI-H460) was 52.4 µM (inactive) and 40.4 µM (inactive), the GI50 (MOLT-4) was 918 nM (active) and 697 nM (active) and the GI50 (HOP-62) was > 100 µM (inactive). The GI50 (SN12C) was 40.5 µM (inactive) and 34.9 µM (inactive), the GI50 (UO-31) was 16.7 µM (inactive) and 9.33 µM (inactive) and the GI50 (RXF 393) was 22.3 µM (inactive) and 14.7 µM (inactive). For the same compound, the GI50 (SW-620) was 21.5 µM (inactive) and 19.5 µM (inactive), the GI50 (DMS-273) was 35 µM (inactive) and 19.7 µM (inactive) and the GI50 (OVCAR-8) was 30.1 µM (inactive) and 22.2 µM (inactive). For the same compound, the GI50 (SK-MEL-2) was 17.4 µM (inactive) and 15 µM (inactive), the GI50 (CAKI-1) was 51.6 µM (inactive) and 56.9 µM (inactive) and the GI50 (SF-295) was 15.5 µM (inactive) and 12.4 µM (inactive). The GI50 (786-0) was > 100 µM (inactive), the GI50 (HOP-92) was 26.4 µM (inactive) and 39.7 µM (inactive) and the GI50 (OVCAR-4) was 10.7 µM (inactive) and 5.66 µM (inactive). The GI50 (DMS-114) was 18.3 µM (inactive) and 14.6 µM (inactive), the GI50 (KM12) was 21.2 µM (inactive) and 15 µM (inactive) and the GI50 (SF-539) was 17.6 µM (inactive) and 23 µM (inactive). For the same compound, the GI50 (XF498) was 12.4 µM (inactive) and 19 µM (inactive), the GI50 (IGROV-1) was 83.6 µM (inactive) and 44.5 µM (inactive) and the GI50 (U-251) was 71.1 µM (inactive) and 50.6 µM (inactive). For the same compound, the GI50 (SF-268) was 17.5 µM (inactive) and 12.2 µM (inactive), the GI50 (NCI-H23) was 18.4 µM (inactive) and 29.2 µM (inactive) and the GI50 (TK-10) was 68.2 µM (inactive) and 53.8 µM (inactive). The GI50 (SNB-75) was 12 µM (inactive) and 17.3 µM (inactive), the GI50 (SK-OV-3) was > 100 µM (inactive) and the GI50 (LXFL 529) was 9.35 µM (inactive) and 12.5 µM (inactive). The GI50 (HT-29) was 13.5 µM (inactive) and 9.16 µM (inactive), the GI50 (RXF 631) was 22.2 µM (inactive) and 29.2 µM (inactive) and the GI50 (Malme-3M) was 7.08 µM (inactive) and 7.24 µM (inactive). The GI50 (HOP-18) was > 100 µM (inactive) and the GI50 (LOX IMVI) was 15.4 µM (inactive) and 10.8 µM (inactive).
`NC1=NS(=O)(=O)Nc2nc(-c3ccc(Cl)cc3)c(-c3ccc(Cl)cc3)nc21` was tested, and the GI50 (HL-60) was > 100 µM (inactive), the GI50 (CCRF-CEM) was 82400 nM (inactive) and the GI50 (UACC-257) was > 100000 nM (inactive). For the same compound, the GI50 (M19-MEL) was > 100000 nM (inactive), the GI50 (K562) was 34 µM (inactive) and the GI50 (UACC-62) was > 100000 nM (inactive). The GI50 (SNB-78) was > 100000 nM (inactive), the GI50 (COLO 205) was > 100000 nM (inactive) and the GI50 (SNB-19) was > 100 µM (inactive). The GI50 (OVCAR-3) was > 100000 nM (inactive), the GI50 (ACHN) was > 100 µM (inactive) and the GI50 (OVCAR-5) was > 100000 nM (inactive). The GI50 (HCC 2998) was > 100 µM (inactive), the GI50 (M14) was > 100000 nM (inactive) and the GI50 (SK-MEL-28) was > 100 µM (inactive). For the same compound, the GI50 (A549) was > 100 µM (inactive), the GI50 (SK-MEL-5) was > 100 µM (inactive) and the GI50 (DLD-1) was > 100000 nM (inactive). For the same compound, the GI50 (NCI-H460) was > 100 µM (inactive), the GI50 (MOLT-4) was > 100 µM (inactive) and the GI50 (HOP-62) was > 100 µM (inactive). For the same compound, the GI50 (SN12C) was > 100000 nM (inactive), the GI50 (UO-31) was > 100 µM (inactive) and the GI50 (HCT-116) was > 100 µM (inactive). For the same compound, the GI50 (RXF 393) was > 100 µM (inactive), the GI50 (SW-620) was > 100 µM (inactive) and the GI50 (DMS-273) was > 100 µM (inactive). For the same compound, the GI50 (OVCAR-8) was > 100 µM (inactive), the GI50 (CAKI-1) was > 100 µM (inactive) and the GI50 (SF-295) was > 100000 nM (inactive). The GI50 (SR) was > 100 µM (inactive), the GI50 (786-0) was > 100 µM (inactive) and the GI50 (HOP-92) was > 100000 nM (inactive). For the same compound, the GI50 (OVCAR-4) was > 100000 nM (inactive), the GI50 (DMS-114) was 32.1 µM (inactive) and the GI50 (KM12) was > 100 µM (inactive). The GI50 (SF-539) was > 100 µM (inactive), the GI50 (NCI-H522) was 48 µM (inactive) and the GI50 (XF498) was 69.3 µM (inactive). For the same compound, the GI50 (IGROV-1) was > 100 µM (inactive), the GI50 (U-251) was 65.8 µM (inactive) and the GI50 (SF-268) was > 100000 nM (inactive). For the same compound, the GI50 (NCI-H23) was > 100 µM (inactive), the GI50 (TK-10) was > 100 µM (inactive) and the GI50 (SNB-75) was > 100000 nM (inactive). The GI50 (LXFL 529) was 34900 nM (inactive), the GI50 (HT-29) was > 100000 nM (inactive) and the GI50 (RXF 631) was > 100000 nM (inactive). For the same compound, the GI50 (Malme-3M) was > 100000 nM (inactive), the GI50 (HOP-18) was > 100 µM (inactive) and the GI50 (LOX IMVI) was 29.3 µM (inactive).
